Tested on: HbF
Assay: Erythroid differentiation and HbF detection by flow cytometry
Format: cell-based, human
Settings: erythroid differentiation, flow cytometry (days 7 and 14 collected; day of the values not stated); UNC0638 at 0.5 μM
Method: The present teachings (herein also referred to as TRIAMF for brevity) were applied for the delivery of RNPs consisting of guides targeting the HBG […] to recapitulate the genotype of a form of hereditary persistent fetal hemoglobin found in many patients. […] Through a combination of next generation sequencing (NGS) and quantitative PCR (qPCR), editing efficiency at the target site was determined to be a total average of 63% total editing.
FIG. 20 depicts percentage of HbF cells at D7 and D14 of erythroid differentiation protocol of WT, mock treated, HBG edited, and UNC0638 (Blood. 2015, July 30:126(5):665-72) positive control treated cells. Cells were analyzed by fixation and staining of CD235a,CD71, and HbF. The cells were collected on days 7 and 14 and stained with CD235a, CD71, and fetal hemoglobin, and analyzed with flow cytometry. […]

COc1cc2c(NC3CCN(C(C)C)CC3)nc(C3CCCCC3)nc2cc1OCCCN1CCCC1 [UNC0638]
cells expressed HbF: 92%
